Columns and labels:
Details in all cases: Compound concentration 1000.0 nM
[1] = test system: Tyrosine-protein kinase ABL1 (Homo sapiens), P00519 [T315I]
[2] = target: T1, Serine/threonine-protein kinase BRSK1 (Homo sapiens) (UniProt Q8TDC3)
T1 sequence (whole entry): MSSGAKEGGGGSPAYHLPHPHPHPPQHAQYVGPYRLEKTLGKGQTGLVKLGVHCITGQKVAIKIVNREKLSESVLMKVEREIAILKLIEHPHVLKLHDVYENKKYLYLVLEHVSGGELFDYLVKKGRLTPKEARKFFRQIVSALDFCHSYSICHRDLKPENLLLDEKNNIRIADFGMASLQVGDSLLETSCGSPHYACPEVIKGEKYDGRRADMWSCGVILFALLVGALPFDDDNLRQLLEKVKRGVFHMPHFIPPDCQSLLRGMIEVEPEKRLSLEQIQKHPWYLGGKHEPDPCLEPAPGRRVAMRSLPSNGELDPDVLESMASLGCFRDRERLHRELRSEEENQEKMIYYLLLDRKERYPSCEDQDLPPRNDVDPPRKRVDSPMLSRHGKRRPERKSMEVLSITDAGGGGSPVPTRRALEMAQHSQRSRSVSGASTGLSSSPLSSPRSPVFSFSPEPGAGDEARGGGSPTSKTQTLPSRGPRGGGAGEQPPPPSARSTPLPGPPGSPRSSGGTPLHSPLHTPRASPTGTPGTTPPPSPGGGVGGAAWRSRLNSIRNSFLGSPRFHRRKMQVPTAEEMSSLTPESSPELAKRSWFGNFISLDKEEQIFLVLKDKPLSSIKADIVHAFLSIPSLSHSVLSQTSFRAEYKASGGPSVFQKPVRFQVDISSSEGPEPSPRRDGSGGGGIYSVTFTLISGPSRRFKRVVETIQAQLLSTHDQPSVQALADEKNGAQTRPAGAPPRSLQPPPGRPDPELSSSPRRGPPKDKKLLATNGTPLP

[3] = target: Serine/threonine-protein kinase BRSK2 (Homo sapiens) (UniProt Q8IWQ3)
[4] = target: Citron Rho-interacting kinase (Homo sapiens) (UniProt O14578)
[5] = target: T2, G protein-coupled receptor kinase 3 (Homo sapiens) (UniProt P35626)
T2 sequence (whole entry): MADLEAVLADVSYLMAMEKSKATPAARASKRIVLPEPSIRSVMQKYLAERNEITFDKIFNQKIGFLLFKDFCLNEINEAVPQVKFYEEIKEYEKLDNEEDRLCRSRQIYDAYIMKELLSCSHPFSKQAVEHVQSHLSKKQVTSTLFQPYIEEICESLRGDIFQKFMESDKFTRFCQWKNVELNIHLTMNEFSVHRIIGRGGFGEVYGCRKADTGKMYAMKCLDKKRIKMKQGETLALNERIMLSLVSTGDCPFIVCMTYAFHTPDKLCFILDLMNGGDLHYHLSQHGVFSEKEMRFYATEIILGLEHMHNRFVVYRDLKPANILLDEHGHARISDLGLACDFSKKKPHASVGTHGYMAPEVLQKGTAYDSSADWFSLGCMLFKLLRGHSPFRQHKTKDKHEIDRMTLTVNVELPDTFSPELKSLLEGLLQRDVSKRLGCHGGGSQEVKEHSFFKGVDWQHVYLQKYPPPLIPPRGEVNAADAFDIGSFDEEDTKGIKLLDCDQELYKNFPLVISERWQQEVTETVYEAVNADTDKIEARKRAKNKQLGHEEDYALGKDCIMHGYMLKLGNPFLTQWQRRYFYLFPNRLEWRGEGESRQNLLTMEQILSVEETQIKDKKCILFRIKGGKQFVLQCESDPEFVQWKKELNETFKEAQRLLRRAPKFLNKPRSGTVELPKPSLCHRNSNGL

[6] = target: T3, Tyrosine-protein kinase ITK/TSK (Homo sapiens) (UniProt Q08881)
T3 sequence (whole entry): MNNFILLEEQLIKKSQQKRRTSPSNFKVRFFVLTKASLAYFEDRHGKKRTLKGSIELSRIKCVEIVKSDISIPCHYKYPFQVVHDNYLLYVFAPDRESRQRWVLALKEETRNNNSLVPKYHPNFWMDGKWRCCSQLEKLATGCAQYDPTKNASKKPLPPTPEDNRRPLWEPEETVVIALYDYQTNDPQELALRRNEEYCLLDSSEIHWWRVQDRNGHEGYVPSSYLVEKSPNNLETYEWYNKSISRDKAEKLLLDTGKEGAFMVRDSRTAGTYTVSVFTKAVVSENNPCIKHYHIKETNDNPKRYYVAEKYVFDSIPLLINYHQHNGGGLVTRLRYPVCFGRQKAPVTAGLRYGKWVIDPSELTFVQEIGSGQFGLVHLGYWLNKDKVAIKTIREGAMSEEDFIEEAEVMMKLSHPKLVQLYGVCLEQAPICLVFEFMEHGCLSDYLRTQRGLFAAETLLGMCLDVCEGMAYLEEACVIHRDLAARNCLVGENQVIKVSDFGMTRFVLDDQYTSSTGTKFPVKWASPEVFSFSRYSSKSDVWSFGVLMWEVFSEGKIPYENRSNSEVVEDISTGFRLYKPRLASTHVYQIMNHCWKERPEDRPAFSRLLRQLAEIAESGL

[7] = target: Mitogen-activated protein kinase kinase kinase 15 (Homo sapiens) (UniProt Q6ZN16)
[8] = target: Misshapen-like kinase 1 (Homo sapiens) (UniProt Q8N4C8)

Measured: residual activity

Chain of Misshapen-like kinase 1 (Homo sapiens) (Q8N4C8 whole entry, looked up): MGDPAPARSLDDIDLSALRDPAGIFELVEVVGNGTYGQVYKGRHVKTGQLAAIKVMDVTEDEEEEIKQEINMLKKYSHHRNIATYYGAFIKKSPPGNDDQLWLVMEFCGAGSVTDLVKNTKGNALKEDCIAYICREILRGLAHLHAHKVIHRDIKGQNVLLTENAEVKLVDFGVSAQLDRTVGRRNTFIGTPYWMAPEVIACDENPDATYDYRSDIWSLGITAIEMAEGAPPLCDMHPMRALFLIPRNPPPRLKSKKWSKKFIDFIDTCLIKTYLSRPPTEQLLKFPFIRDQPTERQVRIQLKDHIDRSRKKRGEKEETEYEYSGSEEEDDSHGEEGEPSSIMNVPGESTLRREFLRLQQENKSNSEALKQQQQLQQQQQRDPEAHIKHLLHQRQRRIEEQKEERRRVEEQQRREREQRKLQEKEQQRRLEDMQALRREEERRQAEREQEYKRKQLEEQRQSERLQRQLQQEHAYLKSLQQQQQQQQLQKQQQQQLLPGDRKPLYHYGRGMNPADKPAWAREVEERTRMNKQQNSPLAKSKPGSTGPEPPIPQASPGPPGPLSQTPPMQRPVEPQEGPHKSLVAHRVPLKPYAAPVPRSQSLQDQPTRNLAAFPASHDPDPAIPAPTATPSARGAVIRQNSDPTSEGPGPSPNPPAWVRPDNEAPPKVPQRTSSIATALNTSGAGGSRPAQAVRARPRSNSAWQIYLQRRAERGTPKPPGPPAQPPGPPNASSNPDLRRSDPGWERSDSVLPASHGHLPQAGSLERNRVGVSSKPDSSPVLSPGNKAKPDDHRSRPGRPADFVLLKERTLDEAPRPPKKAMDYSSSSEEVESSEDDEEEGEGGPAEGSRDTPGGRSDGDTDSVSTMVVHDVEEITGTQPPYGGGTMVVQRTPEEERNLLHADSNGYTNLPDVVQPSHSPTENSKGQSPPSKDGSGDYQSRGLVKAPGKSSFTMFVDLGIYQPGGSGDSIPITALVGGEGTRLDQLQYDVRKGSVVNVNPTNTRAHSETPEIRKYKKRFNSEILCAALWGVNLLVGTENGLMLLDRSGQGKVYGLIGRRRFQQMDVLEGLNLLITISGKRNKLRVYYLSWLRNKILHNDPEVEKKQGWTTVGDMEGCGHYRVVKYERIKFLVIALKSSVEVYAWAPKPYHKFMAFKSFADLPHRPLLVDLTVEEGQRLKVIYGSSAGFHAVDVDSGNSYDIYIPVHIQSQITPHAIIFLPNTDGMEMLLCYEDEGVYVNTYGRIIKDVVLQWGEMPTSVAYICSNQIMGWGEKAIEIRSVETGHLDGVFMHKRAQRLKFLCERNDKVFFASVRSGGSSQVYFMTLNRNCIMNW
Chain of Mitogen-activated protein kinase kinase kinase 15 (Homo sapiens) (Q6ZN16 whole entry): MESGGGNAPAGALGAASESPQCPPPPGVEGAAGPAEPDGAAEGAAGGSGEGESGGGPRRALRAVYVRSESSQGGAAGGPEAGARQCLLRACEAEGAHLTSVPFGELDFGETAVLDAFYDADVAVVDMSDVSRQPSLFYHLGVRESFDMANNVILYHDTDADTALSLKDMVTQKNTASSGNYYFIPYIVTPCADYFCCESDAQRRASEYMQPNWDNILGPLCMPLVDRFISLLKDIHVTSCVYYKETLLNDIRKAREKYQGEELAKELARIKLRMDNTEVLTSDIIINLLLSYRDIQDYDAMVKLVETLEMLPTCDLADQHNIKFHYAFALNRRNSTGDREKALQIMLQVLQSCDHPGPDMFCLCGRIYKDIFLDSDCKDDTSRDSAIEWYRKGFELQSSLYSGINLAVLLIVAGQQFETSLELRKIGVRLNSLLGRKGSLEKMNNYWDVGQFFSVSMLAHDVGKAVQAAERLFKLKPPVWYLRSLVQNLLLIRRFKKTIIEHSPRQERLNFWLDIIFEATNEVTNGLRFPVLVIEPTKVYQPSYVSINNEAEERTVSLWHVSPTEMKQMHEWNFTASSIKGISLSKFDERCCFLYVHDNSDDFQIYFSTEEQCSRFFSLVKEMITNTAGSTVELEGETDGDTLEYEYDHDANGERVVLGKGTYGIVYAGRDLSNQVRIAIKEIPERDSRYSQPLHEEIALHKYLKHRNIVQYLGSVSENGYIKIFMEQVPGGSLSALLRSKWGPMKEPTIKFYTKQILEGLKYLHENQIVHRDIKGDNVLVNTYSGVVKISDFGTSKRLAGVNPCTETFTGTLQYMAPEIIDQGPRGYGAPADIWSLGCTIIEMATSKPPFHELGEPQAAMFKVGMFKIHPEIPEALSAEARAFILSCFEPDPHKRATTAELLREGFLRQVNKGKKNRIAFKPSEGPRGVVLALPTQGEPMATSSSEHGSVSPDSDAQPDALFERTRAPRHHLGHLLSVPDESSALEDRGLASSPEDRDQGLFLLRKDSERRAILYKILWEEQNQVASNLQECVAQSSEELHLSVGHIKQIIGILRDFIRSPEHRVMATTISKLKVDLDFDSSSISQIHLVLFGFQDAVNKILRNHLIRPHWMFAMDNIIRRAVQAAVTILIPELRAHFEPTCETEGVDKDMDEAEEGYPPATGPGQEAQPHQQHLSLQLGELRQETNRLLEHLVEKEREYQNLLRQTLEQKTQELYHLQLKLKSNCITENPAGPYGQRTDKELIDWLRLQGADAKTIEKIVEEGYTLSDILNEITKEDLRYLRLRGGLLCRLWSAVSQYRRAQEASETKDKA
Chain of Serine/threonine-protein kinase BRSK2 (Homo sapiens) (Q8IWQ3 whole entry): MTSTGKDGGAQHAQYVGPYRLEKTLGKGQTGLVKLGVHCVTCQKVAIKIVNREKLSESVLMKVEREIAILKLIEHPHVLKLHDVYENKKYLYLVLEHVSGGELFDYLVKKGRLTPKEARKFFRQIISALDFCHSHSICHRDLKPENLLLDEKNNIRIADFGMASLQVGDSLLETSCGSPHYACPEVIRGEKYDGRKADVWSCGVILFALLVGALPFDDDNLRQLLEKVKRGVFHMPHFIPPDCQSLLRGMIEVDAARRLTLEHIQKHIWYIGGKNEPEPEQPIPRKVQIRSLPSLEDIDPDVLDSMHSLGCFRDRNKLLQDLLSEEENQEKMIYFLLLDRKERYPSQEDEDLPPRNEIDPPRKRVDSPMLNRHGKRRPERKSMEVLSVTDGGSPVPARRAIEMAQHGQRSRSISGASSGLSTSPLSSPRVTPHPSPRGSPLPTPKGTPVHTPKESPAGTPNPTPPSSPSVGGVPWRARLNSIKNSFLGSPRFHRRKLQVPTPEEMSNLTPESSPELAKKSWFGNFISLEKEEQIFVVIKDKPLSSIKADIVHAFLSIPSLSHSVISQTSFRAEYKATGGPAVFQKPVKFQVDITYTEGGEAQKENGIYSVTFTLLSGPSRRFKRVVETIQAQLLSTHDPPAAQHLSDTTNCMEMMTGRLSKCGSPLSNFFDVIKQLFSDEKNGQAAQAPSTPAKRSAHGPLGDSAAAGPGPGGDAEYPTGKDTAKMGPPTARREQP

CN(C)C(=O)Cn1cc(-c2nc(C3(c4ccc(-c5cnc(N)nc5)cc4)CC3)no2)cn1 [BI 0153]
inactive: [1] 82% | [2] 93% | [3] 77% | [4] 86% | [5] 69% | [6] 92% | [7] 100% | [8] 91%

CN(C)C(=O)Cn1cc(-c2nc([C@@](C)(c3ccc(-c4cnc(N)nc4)cc3)C3CC3)no2)cn1 [BI 665915]
inactive: [1] 86% | [2] 98% | [3] 100% | [4] 84% | [5] 86% | [6] 99% | [7] 99% | [8] 85%
